Experimental data taken from a melting point compilation (Tetko et al.; mined from patent text by program, amines drawn as free bases though some values may be those of a salt).

melting point [°C]	Compound
152 to 153	ClCc1ccc2oc(-c3cccs3)nc2c1
208 to 210	Cn1cc(Cl)c(-n2ccnc2S(N)(=O)=O)n1
98 to 99	O=C(COC(=O)C(O)Cc1ccccc1)Oc1ccccc1 (stereo not given)
162 to 167	O=C(Nc1ccc(-n2nc(C3CC3)cc2C2CC2)cc1)c1ccc2nccnc2c1
164 to 166	CCOC(=O)c1cn(C2CC2)c2nc(N3CCC(NC)C3)c(F)cc2c1=O (stereo not given)
230 to 232	CCc1cc(-c2ccc(Cl)cc2)nc2c(C(=O)Nc3cccc(S(C)(=O)=O)c3)cnn12
43 to 47	Cc1ccc(C(O)CCCO)cc1 (stereo not given)
141 to 143	c1cc(-c2cnn3cc(-c4ccc(OCCN5CCCCC5)cc4)cnc23)cs1
> 350	O=C(O)c1ccc2c(c1)C(=O)C(c1nc3ccccc3cc1O)C2=O (stereo not given)
137 to 138	CN1c2cscc2C(=O)N(Cc2ccccc2)c2ccccc21
132	N#Cc1cccc(Oc2ccccc2N)c1C#N
133	CCN(CC)CCSC1=C(C#N)C(c2ccc(OC)cc2)(c2cccnc2)C(=O)N1 (stereo not given)
89 to 90	CCC(=O)NCCC1CCc2ccc3ncoc3c21 (stereo not given)
230 to 232	O=C1CSc2cc(C(O)(C(F)(F)F)C(F)(F)F)ccc2N1
191 to 194	C[C@@H](c1ccc(-c2ccc(C(=O)NC3CC3)cn2)cc1)N1CC[C@](CC(C)(C)O)(c2ccccc2)OC1=O
133 to 134	CCN1c2ncc(CCc3ccnc(CO)c3)cc2C(=O)N(C)c2ccc(Cl)nc21
111 to 112	CCCc1nn(-c2ccc(C(F)(F)F)cn2)cc1CCCOc1ccc(F)c(CC(=O)O)c1
79 to 81	Cn1c(=O)cc(CCN2CCC(c3c[nH]c4ccccc34)CC2)c2ccccc21
146 to 148	COC(=O)c1ccc([N+](=O)[O-])cc1NC(=O)c1ccc(C(C)(C)C)cc1
54 to 55	CCCSc1ccc2cc[nH]c2c1
76 to 81	COc1ccccc1N1CCN(CCN2C(=O)c3ccccc3C2=O)CC1
124 to 126	COc1ccc(CNc2nnc(OCCCO)c3ccc(Cl)cc23)cc1Cl
162	O=c1n(C2CCCCC2)c2cc(Cl)ccc2n1S(=O)(=O)c1ccc([N+](=O)[O-])cc1
254	O=C(c1c[nH]c2ccc(Br)cc12)C(F)(F)F

melting point [°C]	Compound
128 to 129	COc1ccccc1-n1nnc2cc(F)c(N)cc21
143 to 144	CCCCOc1c(CO)n(CC(C)(C)C)c(=O)c2ccc(F)cc12
230 to 233	Cc1ccc2c(c1)c1c(n2C(=O)c2ccc(F)cc2)CCC(C(=O)O)C1 (stereo not given)
120	CCCCCCCCOc1ccc(-c2ccc(Br)cc2)cc1
201	Cc1cccc(N2CCN(c3ccc(S(C)(=O)=O)nn3)CC2)c1
51 to 52	Cc1cc(C)cc(C#N)c1
65 to 68	COc1ccc(CCN2C=CC=C3C2=Nc2cc(OC)ccc2S(=O)(=O)N3C)cc1
155 to 157	BrCC(Br)c1ccc(C(Br)CBr)cc1 (stereo not given)
188 to 190	COC(=O)C1=C(C)NC(C)=C(C(=O)OCCN2C(=O)c3ccccc3C2=O)C1c1cccc(C)c1 (stereo not given)
176 to 177	Clc1ccc(-c2nnnn2Cc2ccccc2)s1
204 to 210	Cc1cccc(Cl)c1C(=O)N[C@@H](Cc1ccc(-c2cccn(C)c2=O)cc1)C(=O)O
68 to 69	C=CCNC(=S)NC(=O)c1ccccc1
142 to 144	CCCc1nc(C(C)(C)O)c(C(=O)OC2OC(=O)c3ccccc32)n1Cc1ccc(-c2ccccc2C(=O)O)cc1 (stereo not given)
150 to 151	CCc1ccc(NC(=O)c2cc(C(C)(C)C)ccc2S)cc1
180 to 182	CCOC(=O)CNc1ccc(C2=NNC(=O)NC2C)cc1 (stereo not given)
127	COC(=O)c1cc(C(=O)c2cccc(Cl)c2)n(C)c1
198 to 199	Cc1ccc(N(c2ccc(C)cc2)c2c(C)cc(-c3cc(C)c(N(c4ccc(C)cc4)c4ccc5ccc6cccc7ccc4c5c67)c(C)c3)cc2C)cc1
216 to 217	O=C(O)c1ccc(CNc2cc(Br)ccc2OCc2ccccc2)cc1
93 to 94	COc1ccc(SC2CC(=O)NC2=O)cc1 (stereo not given)
101 to 102	CC(C)(C)c1ccc(/C=N/OCCCOc2ccc(CCC(=O)O)cc2)cc1
154	O=c1c(-c2nc3ccccc3[nH]2)coc2ccccc12
156	CCOCc1cncc(-c2ccc3c(c2)nc(N)c2nc(COCC)n(CC(C)(C)O)c23)c1
209 to 210	CC(C)n1nc(-c2cnc(N)nc2-c2ccc(C(F)(F)F)cc2)ccc1=O
149 to 150	O=c1c2c(oc3ccc(Br)cc13)CCCC2

melting point [°C]	Compound
128 to 131	O=C(C[C@@H](O)C(=O)O)c1ccccc1
239 to 240	CC(c1oc2ccc(Br)cc2c(=O)c1-c1ccccc1)n1ncc2c(N)ncnc21 (stereo not given)
209 to 211	Cc1cc(Cc2cnc(Cl)nc2Cl)c2cccnc2c1N
156 to 160	CC(C)(C)C(O)(CC#CBr)C(Oc1ccc(Cl)cc1)n1cncn1 (stereo not given)
199 to 201	CC(C)(C)OC(=O)NC1CCc2ccccc2NC1=O (stereo not given)
83 to 84	CCOC(=O)C1OC1C(=O)Nc1ccccc1 (stereo not given)
85 to 88	CC(C)(C=O)Oc1ccc(Cl)cc1C#N
152	N#CCc1c(Cl)ccc2cc(Cl)cnc12
182	CCSC(c1ccc(Cl)cc1Cl)C(C(O)C(C)(C)CF)n1cncn1 (stereo not given)
230 to 243	CC(Nc1nc2ccc(Cl)cc2cc1C(=O)O)C(=O)Nc1ccc2ccccc2c1 (stereo not given)
163 to 164	O=C(c1ccccc1)c1ccc(OCCCCOc2ccc(C(=O)c3ccccc3)cc2)cc1
131 to 132	CC(C)Oc1c(C(=O)O)oc(C(=O)O)c1OC(C)C
132 to 137	CS(=O)(=O)CC(=O)c1ccc(Cl)cc1
190 to 193	Cc1ccc(NC(=O)N[C@]2(C3CCCCC3)N=Cc3ccccc3N(C)C2=O)cc1Nc1nnn[nH]1
186	COc1ccccc1-c1cc(N2CCN(Cc3ccc(C)cc3)CC2)n2ccc(=O)ccc12
156	COc1ccc(-c2cc(=O)c3c(OC)cc(OC)cc3o2)cc1
160 to 162	COc1ccc(C2CC(=O)C(=C3SC4NCCNC4S3)C(=O)C2)cc1 (stereo not given)
77 to 79	COC1=C(OC)C(=O)C(CCCCCCCCCCCCCCCCCC(=O)O)=C(C)C1=O
121 to 123	CCOC(=O)c1cnc(C)nc1NCc1ccc(-c2ccccc2-c2nnn[nH]2)cc1
162	C=C(c1cc(OC)c(O)c2c(Cc3ccccc3)cccc12)C(C)(C)C(=O)O
251 to 254	CN1CCC(c2c[nH]c3ccc(-n4ccnn4)cc23)CC1
124 to 125	COc1cccc(S(=O)(=O)N2CCc3cc(OCc4ccccc4)c(OC)cc3C2)c1
111 to 113	OCC1C2OCC(O2)C(OCc2ccccc2)C1O (stereo not given)
117	C=CCn1c(C)nc2c3c(ccc21)[C@@H](OCCF)[C@H](O)[C@@H](c1ccccc1)O3

melting point [°C]	Compound
80 to 81	CC(=O)c1c(C)sc(-c2ccncc2)c1C
92 to 94	CCCCCc1cnc(N2CCC(c3ccc(COc4ccc(C#N)c(F)c4)nc3)CC2)nc1
188 to 190	CNc1cccc(-c2ccnc3c(C(=O)c4cccs4)cnn23)c1
43 to 46	CN(C)CCCCCCOc1ccc(C(=O)/C=C/c2ccccc2)cc1
98	CCc1nc2c(C)cc(C)nc2n1Cc1ccc(C(=O)c2ccccc2)cc1
79 to 81	CCCC(CO)N1CC(COc2cccc(Cl)c2)OC1=O (stereo not given)
159 to 161	CN1CCc2c(sc3ncn(CCCl)c(=O)c23)C1
112	COc1ccc(CN(C)CCCc2ccc(NC(=O)c3cccc4c(=O)c5ccccc5[nH]c34)cc2)cc1OC
125 to 127	O=C1N(CCC2CC2)c2ccccc2C12COc1cc3c(cc12)OCO3 (stereo not given)
249 to 250	O=C(NCc1ccc(Cl)cc1)c1cnc2c(C(F)(F)F)cc(CCCO)cc2c1O
130	Cc1ccc(Cc2nc3c(nnn3C(C)CCCc3ccccc3)c(=O)[nH]2)cc1 (stereo not given)
30 to 50	CC(=O)Oc1cccc(C(C)=NOCCOc2ccc(CC3SC(=O)NC3=O)cc2)c1 (stereo not given)
205	CN1C(=O)C(Br)=C(c2c[nH]c3c(OC(c4ccccc4)c4ccccc4)cccc23)C1=O
202 to 205	Nc1ncnc2c1ncn2Cc1oc2ccccc2c(=O)c1-c1ccccc1F
123 to 124	COc1ccc(CNC(=O)C(=O)NCCc2ccccn2)c(OC)c1
233 to 234	C[C@@H]1CN(C(=O)c2cc3c(C(=O)OC(C)(C)C)ncn3c3ccccc23)C[C@H](C)N1
62 to 67	CCCn1nc(C(C)C)c(C(=O)OCOC(=O)C(C)(C)C)c1Cc1ccc(-c2ccccc2-c2nnn[nH]2)cc1
178	CC(C)(Oc1ccc(OCc2cnc(-c3ccc(C(F)(F)F)cc3)nc2C2CC2)c(F)c1)C(=O)O
210 to 213	Oc1ccc(-c2cc3cc(O)cc(CC(F)(F)F)c3o2)cc1
237	Cc1c(Cl)ccc2c3cccc(C(=O)O)c3n(C)c12
268 to 270	COc1ccc2nc3c(cc2c1)c(C(N)=O)nn3C
156 to 158	COc1cc2cc[nH]c2cc1OCCCN1CCC(c2noc3cc(F)ccc23)CC1
236 to 237	Cc1cccc(Nc2nc(-c3cccc(C#N)c3)c(-n3cncn3)s2)n1
95 to 105	O=C(O)C(CCc1ccccc1)CC(CCc1ccccc1)C(=O)O (stereo not given)

Compound	melting point [°C]
CC(=O)OC1=CCC2C3CC=C4CC(OC(C)=O)CCC4(C)C3CCC12C (stereo not given)	144 to 150
NC(=O)N1CCC(O[N+](=O)[O-])CC1	110 to 111
CCOC(=O)c1ncn2c1C(C)N=C(c1ccccc1F)c1cc(C#C[Si](C)(C)C)ccc1-2 (stereo not given)	186 to 187
O=[N+]([O-])C=C1C[N+]([O-])=C(c2ccccc2F)c2cc([N+](=O)[O-])ccc2N1	216 to 220
